This is an account of results in patent publication US6017957A (priority 1989, dated 2000).

Data set [1] relates to NMDA-induced convulsions. The experiment in a line: NMDA-induced convulsions and death (anticonvulsant activity). The class given is in vivo, male NIH-Swiss mice. The method, then:
(§1) Male (25-30 g) NIH-Swiss mice (Harlan Sprague-Dawley, Frederick, Md.) were group housed in 32 cm×25 cm×15 cm plastic cages (10-15/cage) with food and water freely available. Mice were injected intraperitoneally with the test substance and challenged fifteen minutes later (unless otherwise specified) with NMDA (125 mg/kg), pentylenetetrazole (PTZ) (80mg/kg), strychnine (strych.) hemisulfate (2 mg/kg, as the base), bicuculline (bicuc.) (6 mg/kg) or maximal electroshock (MES). NMDA, PTZ, and strych. hemisulfate were dissolved in distilled water. Bicuculline was dissolved in 0.01 N HC1. These compounds were injected in a volume of 0.1 ml 1-aminocyclopropanecarboxylates were dissolved in distilled water and doses ≤500 mg/kg injected in a volume of 0.1 ml; doses >500 mg/kg were injected in proportionately larger volumes. Immediately after convulsant challenge, mice were placed in 28.5 cm×17.8 cm×12 cm plastic cages (1/cage) and observed for 15 minutes. The presence or absence of convulsions and the time to the first convulsive episode (latency) were noted. MES were produced by applying a 50 mA current through alligator clips attached to the pinnae for 0.2 s.

Data set [2] deals with maximal electroshock seizures. The experiment in a line: Maximal electroshock seizures (MES). The class given is in vivo, male NIH-Swiss mice. The procedure:
as §1
For orientation: The maximal electroshock test induces tonic seizures with an electrical stimulus.

For data set [3], the system named is motor performance (rotarod). The experiment in a line: Motor performance, rotarod. The class given is in vivo, NIH-Swiss mice. An excerpt: (§2) Evaluation of motor performance:
Background: Falling from the rotarod earlier than controls is read as motor impairment.

Data set [4] has as its system motor performance (horizontal wire). The experiment in a line: Motor performance, horizontal (hanging) wire test. The format is in vivo, NIH-Swiss mice.
Text: as §2

For data set [5], the system named is pentylenetetrazole (PTZ)-induced convulsions. To be noted: MK-801; Clineschmidt et al, 1982a; cited from earlier work.
For data set [6], the system named is strychnine-induced convulsions. To be noted: MK-801; Clineschmidt et al, 1982a; cited from earlier work.
The subject of data set [7] is bicuculline-induced convulsions. To be noted: MK-801; Clineschmidt et al, 1982a; cited from earlier work.
For data set [8], the target named is T1, strychnine-insensitive glycine receptors (NMDA receptor complex) (Rattus norvegicus, UniProt P35439).
T1 construct: Synaptic membranes were prepared from forebrains of adult; from tissue; host or cells: forebrain (whole brain minus cerebellum and brainstem) synaptic membranes of adult male Sprague-Dawley rats
Particulars: MK-801; Marvizon and Skolnick, 1988; cited from earlier work.

Data set [9] relates to [^3 H]glycine binding (NMDA receptor complex). Particulars: MK-801 10 μM; Marvizon and Skolnick, 1988; cited from earlier work.
Data set [10] is described as follows: Overt behavioral effects. Particulars: MK-801 1 mg/kg, thirty minutes after administration.
The mark [11] stands for this setting: ACPC 100-2000, ACPCM 19-571 mg/kg, MK-801 1 mg/kg, thirty minutes.
Setting [12] is: i.p., ACPC 400-2000, ACPCM 114-571, MK-801 1 mg/kg.

Take `C[C@]12N[C@H](Cc3ccccc31)c1ccccc12` [MK-801, (+)-5-Methyl-10,11-dihydro-5H-dibenzo [a,d]cyclo-hepten-5,10-imine, reference compound]: the “Effect on convulsions induced by NMDA (125)” value in data set [1] (MK-801 1 mg/kg i.p., positive control, superscript 3) is listed as “+”. Also, the “protection against NMDA-induced lethality” value in data set [1] (MK-801 1 mg/kg, thirty minutes following administration) is recorded as “complete protection”. In addition, the “Effect on convulsions induced by MES” value in [2] (MK-801 1 mg/kg i.p., superscripts 1,3) is “+”. Besides, the “abolished hindclimb tonic extensor component of MES, % of mice” value in [2] (MK-801 1 mg/kg, thirty minutes before MES) was found to be 87%. The “impairment of performance in rotarod test” value in [3] (setting [11]) was “complete impairment”. In addition, in data set [3] (setting [12]), the “% Impairment, Rotarod” value was found to be 100%. Also, the “impairment of performance in hanging (horizontal) wire test” value in data set [4] (setting [11]) is “complete impairment”. Moreover, the “% Impairment, Hanging Wire” value in [4] (setting [12]) worked out at 100%. Besides, in data set [5], the “Effect on convulsions induced by PTZ (80)” value was “+”. In addition, the “Effect on convulsions induced by STRYCH. (2)” value in [6] was “-”. Further, in data set [7], the “Effect on convulsions induced by BICUC. (6)” value is reported as “+”. In addition, in [8], the “Inhibition of [^3 H] glycine binding, mode” value is on record as “noncom-”. In addition, the “inhibition of activation of [^3 H]glycine binding by Mg^+2” value in [9] is “non-competitively inhibits”. For the same molecule, the hyperactivity entry in [10] was “profound hyperactivity”.
